The results in this text go back to ChEMBL document CHEMBL1138723, “Design of bivalent ligands using hydrogen bond linkers: synthesis and evaluation of inhibitors for human beta-tryptase” (Bioorg Med Chem Lett, 2004).

The structures appear in SMILES notation. A value given as a limit tells only on which side of the number the result lay.

Assay [1] deals with Tryptase beta-1 (Homo sapiens, UniProt Q15661). As to the kind of experiment: Inhibitory activity against human mast cell tryptase beta.
The target of assay [2] is Voltage-gated inwardly rectifying potassium channel KCNH2 (Homo sapiens, UniProt Q12809). As to the kind of experiment: Inhibitory activity against human Potassium channel HERG.
Voltage-gated inwardly rectifying potassium channel KCNH2, sequence (Q12809 whole entry): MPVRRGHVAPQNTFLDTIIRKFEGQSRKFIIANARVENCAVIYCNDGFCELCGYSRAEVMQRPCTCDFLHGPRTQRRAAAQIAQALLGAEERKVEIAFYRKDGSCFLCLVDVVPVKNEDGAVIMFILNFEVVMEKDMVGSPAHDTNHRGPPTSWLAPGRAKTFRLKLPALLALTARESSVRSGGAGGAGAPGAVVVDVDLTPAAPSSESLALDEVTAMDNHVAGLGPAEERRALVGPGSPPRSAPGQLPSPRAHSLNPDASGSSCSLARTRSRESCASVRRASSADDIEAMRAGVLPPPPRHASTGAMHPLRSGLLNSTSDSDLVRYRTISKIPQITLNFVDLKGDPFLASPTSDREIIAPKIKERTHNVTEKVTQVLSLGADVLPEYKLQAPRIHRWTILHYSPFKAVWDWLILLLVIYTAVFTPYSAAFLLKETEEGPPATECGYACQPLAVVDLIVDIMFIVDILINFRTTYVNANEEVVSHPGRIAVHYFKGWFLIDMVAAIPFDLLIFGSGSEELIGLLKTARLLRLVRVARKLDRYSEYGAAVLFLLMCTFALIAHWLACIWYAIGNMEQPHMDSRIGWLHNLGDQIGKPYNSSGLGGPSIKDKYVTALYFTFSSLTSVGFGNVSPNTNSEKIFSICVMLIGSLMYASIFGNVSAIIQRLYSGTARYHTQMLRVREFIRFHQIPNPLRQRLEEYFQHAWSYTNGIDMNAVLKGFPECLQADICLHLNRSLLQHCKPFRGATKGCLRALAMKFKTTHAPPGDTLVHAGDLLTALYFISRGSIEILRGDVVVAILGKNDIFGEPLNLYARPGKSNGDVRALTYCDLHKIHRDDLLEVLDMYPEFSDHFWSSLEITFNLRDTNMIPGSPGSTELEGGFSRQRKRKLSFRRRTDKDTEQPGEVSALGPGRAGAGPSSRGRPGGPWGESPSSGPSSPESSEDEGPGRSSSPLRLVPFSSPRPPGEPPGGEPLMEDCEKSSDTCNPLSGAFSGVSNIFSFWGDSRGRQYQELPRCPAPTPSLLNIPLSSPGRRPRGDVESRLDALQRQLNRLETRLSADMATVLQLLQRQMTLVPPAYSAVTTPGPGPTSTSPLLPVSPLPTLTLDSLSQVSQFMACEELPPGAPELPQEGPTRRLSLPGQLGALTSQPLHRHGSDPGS
For assay [3], the target named is Cytochrome P450 2C9 (Homo sapiens, UniProt P11712). As to the kind of experiment: Inhibitory activity against cytochrome P450 determined using human liver microsome upon 15 min incubation with probes substrates Tolbutamide (2C9). It is filed as ADME, microsomes. On the technique in general: Liver microsomes are vesicles of endoplasmic reticulum, rich in cytochrome P450 enzymes.
Cytochrome P450 2C9, sequence (P11712 whole entry): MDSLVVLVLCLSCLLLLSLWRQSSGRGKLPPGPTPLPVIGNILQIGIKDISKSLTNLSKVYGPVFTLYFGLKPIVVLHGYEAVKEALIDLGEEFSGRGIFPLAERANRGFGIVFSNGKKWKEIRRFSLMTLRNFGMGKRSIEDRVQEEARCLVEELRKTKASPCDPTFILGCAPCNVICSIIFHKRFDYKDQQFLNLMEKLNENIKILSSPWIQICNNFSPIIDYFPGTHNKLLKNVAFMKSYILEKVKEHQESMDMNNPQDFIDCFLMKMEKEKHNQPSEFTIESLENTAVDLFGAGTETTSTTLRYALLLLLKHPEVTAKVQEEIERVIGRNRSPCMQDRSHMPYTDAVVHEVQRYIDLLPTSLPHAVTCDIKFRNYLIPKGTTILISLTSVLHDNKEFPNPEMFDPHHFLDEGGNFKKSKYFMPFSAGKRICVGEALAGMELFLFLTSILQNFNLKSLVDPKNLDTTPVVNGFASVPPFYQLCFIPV

Assay [4] deals with Cytochrome P450 2C19 (Homo sapiens, UniProt P33261). In words: Inhibitory activity against cytochrome P450 determined using human liver microsome upon 15 min incubation with probes substrates s-mephenytoin (2C19). It is filed as ADME, microsomes.
Cytochrome P450 2C19, sequence (P33261 whole entry): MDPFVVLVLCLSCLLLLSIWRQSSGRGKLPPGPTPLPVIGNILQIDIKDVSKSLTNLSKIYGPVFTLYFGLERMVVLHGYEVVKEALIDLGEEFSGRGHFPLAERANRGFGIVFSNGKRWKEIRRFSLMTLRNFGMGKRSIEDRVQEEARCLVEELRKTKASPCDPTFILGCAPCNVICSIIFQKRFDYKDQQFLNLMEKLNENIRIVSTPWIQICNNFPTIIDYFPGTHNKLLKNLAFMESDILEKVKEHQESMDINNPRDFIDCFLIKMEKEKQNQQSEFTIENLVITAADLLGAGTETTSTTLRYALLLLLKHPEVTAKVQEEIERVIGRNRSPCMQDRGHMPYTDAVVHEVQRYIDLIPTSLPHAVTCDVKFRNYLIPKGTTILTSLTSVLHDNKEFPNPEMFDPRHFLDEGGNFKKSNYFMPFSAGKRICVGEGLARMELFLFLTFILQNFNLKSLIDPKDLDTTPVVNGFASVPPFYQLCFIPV

Tryptase beta-1, sequence (Q15661 whole entry): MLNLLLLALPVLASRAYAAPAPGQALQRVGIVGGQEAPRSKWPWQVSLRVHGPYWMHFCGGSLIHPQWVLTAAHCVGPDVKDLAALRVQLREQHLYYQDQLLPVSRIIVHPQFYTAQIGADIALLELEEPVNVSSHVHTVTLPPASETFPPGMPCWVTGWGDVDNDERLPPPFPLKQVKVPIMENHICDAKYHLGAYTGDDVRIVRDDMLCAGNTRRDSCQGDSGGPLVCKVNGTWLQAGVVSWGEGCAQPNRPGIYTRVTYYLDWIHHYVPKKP

In turn, `CCOC(=O)c1cc(C(=O)N2CCC(c3cc(CN)ccc3F)CC2)cc(-c2nc(-c3cccs3)no2)c1` returned an inhibitory constant (Ki) in assay [1] of 59 nM.
For the compound `NCc1ccc(F)c(C2CCN(C(=O)c3cccc(-c4nc(-c5cccs5)no4)c3)CC2)c1`, the figures for the concentration for half-maximal inhibition (IC50) in assay [2], in assay [3] and in assay [4] were 800 nM, 480 nM and 2190 nM, respectively. This compound also displayed a Ki in assay [1] of 4.3 nM.
For the compound `NCc1ccc(F)c(C2CCN(C(=O)c3cc(C(=O)O)cc(-c4nc(-c5cccs5)no4)c3)CC2)c1`, the half-maximal inhibitory concentration (IC50) in assay [2] is 76800 nM; in assay [3], greater than 50000 nM; in assay [4], greater than 50000 nM. Further, the affinity in assay [1] corresponds to a Ki of 88 nM.
In assay [1], `NCc1cccc(C2CCN(C(=O)c3cc(C(N)=O)cc(-c4nc(-c5cccs5)no4)c3)CC2)c1` gave an inhibition constant Ki of 1.5 nM.
Regarding `NCc1ccc(F)c(C2CCN(C(=O)c3cc(C(N)=O)cc(-c4nc(-c5cccs5)no4)c3)CC2)c1`, the inhibitory constant (Ki) in assay [1] is 1.3 nM.

The Ki is a measure of affinity in units of concentration, obtained from inhibition or displacement. A higher Ki goes with weaker binding. A word on the IC50: it is the concentration needed to halve the response being measured. A high value points to weaker potency in that assay.
